# “And” between values parts separate entries of the source, which are not always exact repeats. Equal values may be shown once.
# Key:
# [1] = target: T1, reduced folate carrier (RFC) (Homo sapiens, UniProt P41440); assay: [3H]MTX transport inhibition in intact CCRF-CEM human T-cell leukemia cells; format: cell-based; conditions: 2 μM [3H]MTX, 37°, 5 min uptake
# T1 construct: endogenous in cells; host or cells: CCRF-CEM human T-cell leukemia cells
# T1 sequence (P41440 1-591): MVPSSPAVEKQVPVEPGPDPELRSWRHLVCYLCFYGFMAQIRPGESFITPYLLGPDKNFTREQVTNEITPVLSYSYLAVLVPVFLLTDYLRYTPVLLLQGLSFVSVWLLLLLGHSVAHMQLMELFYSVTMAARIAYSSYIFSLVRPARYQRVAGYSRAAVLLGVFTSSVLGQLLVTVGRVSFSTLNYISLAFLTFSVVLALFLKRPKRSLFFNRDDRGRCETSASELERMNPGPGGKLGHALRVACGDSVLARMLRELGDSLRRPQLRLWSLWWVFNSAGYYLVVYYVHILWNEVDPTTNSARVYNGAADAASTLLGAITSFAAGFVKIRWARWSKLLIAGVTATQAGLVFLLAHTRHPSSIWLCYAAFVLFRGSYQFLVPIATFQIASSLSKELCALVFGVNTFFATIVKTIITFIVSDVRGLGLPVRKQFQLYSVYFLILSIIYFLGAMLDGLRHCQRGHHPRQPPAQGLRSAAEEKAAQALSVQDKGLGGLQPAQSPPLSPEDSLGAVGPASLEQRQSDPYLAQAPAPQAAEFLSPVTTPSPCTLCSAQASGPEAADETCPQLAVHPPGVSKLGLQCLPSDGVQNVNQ
# Method: Transport of 2 μM [^3H]MTX (methotrexate) at 37° by intact CCRF-CEM human T-cell leukemia was assayed by a micro-method utilizing repeated iced saline washes to remove extracellular drug. Such method is disclosed in McGuire J J, et al., Cancer Res 1989; 49:4517-25 and McGuire J J, et al., Cancer Res 2006; 66:3836-44, both of which are incorporated herein by reference in their entirety. The washed cell pellets were solubilized in 1 ml of 0.3% Triton X-100 at 37° C. for 1 hour before transfer to scintillation vials; 10 ml Ecoscint liquid scintillation fluid (National Diagnostics, Atlanta, Ga.) was added and radioactivity was quantitated in a Beckman LS6500 scintillation counter. […] Uptake was initiated by addition of 200 μL of cells at ≈2.5×10^7 cells/ml and 2 aliquots (100 μL) were removed to iced saline and processed at 5 min. Adventitious [^3H]MTX binding was determined at 0° C. by adding 200 μl of cells to 25 μl of PBS in a tube and cooling to 0° C. in ice for ≧5 min; following addition of 25 μl of [^3H]MTX to achieve a final concentration of 2 μM, 2 aliquots (100 μL) were immediately removed to iced saline and processed.
# Analytical HPLC was performed on a Rainin Instruments HPLC system using the Dynamax controller and data capture module run on a Macintosh computer, such as described in McGuire J J, et al., J Biol Chem 1990; 265:14073-9, which is incorporated herein by reference in its entirety. C18 reversed-phase (0.4×25 cm; Rainin Microsorb, 5μ) HPLC was performed at 25° C. Detection was by absorbance at 280 and/or 254 nm. For MTX (tr, ≈31.6 min) and 7-OH-MTX (tr, ≈35.2 min) the gradient was from 4-13% ACN in 0.1 M Na-acetate, pH 5.5 over 41 min at 1 ml/min.
# [2] = Plasma concentration after oral L- or D-CH-1504 in non-fasted rats (Example 14); format: in vivo; conditions: individual animals; for Plasma conc. of D-CH-1504 / Plasma conc. of L-CH-1504: non-fasted female Lewis rats
# Method: L- or D-CH-1504 was administered once orally to non-fasted female Lewis rats at a dose of 10 mg/kg (vehicle: 0.11% carboxymethylcellulose/0.45% TWEEN 80, formulation: suspension). About 750 μL of blood was collected from the jugular vein at 1 and 3 hours after administration. And then, whole of blood was collected from the femoral vein under diethyl ether anesthesia at 6 hours after administration. The collected blood was immediately centrifuged to obtain a plasma sample. L- and D-CH-1504 were extracted from the plasma by solid-phase extraction and were then determined with a LC/MS/MS.
# [3] = Hygroscopicity study of salts at 75% relative humidity for five days; format: physicochemical
# Source text: Hygroscopicity and approximate solubility in aqueous and buffered solutions of ammonium, besylate, calcium, esylate, sulfate, HCl, mesylate, napsylate, potassium, disodium, and tosylate salts were compared. In the hygroscopicity study, the salts were subjected to 75% relative humidity for five days.
# CCRF-CEM cells = assay: Growth inhibition of CCRF-CEM cells by continuous (120 hr) drug exposure; format: cell-based, human; conditions: continuous 120 hr exposure
# Method: The human T-lymphoblastic leukemia cell line CCRF-CEM (described in Foley G F, et al., Cancer 1965; 18:522-9) was cultured as described in McCloskey D E, et al., J Biol Chem 1991; 266:6181-7 (both of which are incorporated herein by reference in their entirety) and verified to be negative for Mycoplasma contamination (Mycoplasma Plus PCR primers, Stratagene, La Jolla, Calif.).
# [4] = Method: A salt screen of this compound was conducted with various pharmaceutically acceptable counterions to analyze aqueous solubility of the formed salts. Formed solids suspected of forming salts were analyzed by X-ray powder diffraction (XRPD).
# [5] = Comparative dissolution with cyclodextrin formulation (FIG. 4); format: physicochemical; conditions: 45 minutes
# Source text: Compositions according to the invention using cyclodextrins have also shown similarly beneficial results. The improved solubility of the inventive compositions comprising an antifolate compound and a cyclodextrin is illustrated in FIG. 4, wherein the comparative dissolution of an antifolate compound is again given as a percent dissolution as a function of time. The antifolate compound was again tested in the diacid form (denoted as “Free acid”), in the sodium salt form (denoted as “Disodium salt”), and as the sodium salt form in a pharmaceutical composition according to the invention including a cyclodextrin (denoted as “Cyclodextrin formulation”). […] The inventive formulation approached 100% dissolution within 30 minutes. After 45 minutes, the salt alone and the diacid alone achieved only about 70% dissolution and about 45% dissolution, respectively.
# [6] = Pharmacokinetics of a single oral dose in a healthy subject; conditions: human, in vivo
# Method: The pharmacokinetic parameters of a single oral dose of the antifolate compound according to the invention were evaluated. In Comparative Examples 2-7, 1 to 20 mg of an antifolate compound according to Formula (9) was administered in the racemic free acid form (i.e., not as part of a pharmaceutical formulation). The drug product was supplied as powder-filled gelatin capsules in three active strengths (1.0 mg, 2.5 mg. and 5.0 mg) with each capsule including enough microcrystalline cellulose to bring the total capsule weight to 288 mg. […] In Examples 2-8, the test material was administered to a healthy subject, and blood samples were taken before dosing and at 0.5, 1, 1.5, 2, 2.5, 3, 3.5, 4, 5, 6, 8, 10, 12, 16, 24, and 48 hours after dosing. The calculated pharmacokinetic values observed are provided below in Table 3.
# In Table 3, Cmax is the maximum measured plasma concentration of the antifolate compound administered and tmax is the time to Cmax. […] Thus, the pharmaceutical formulations of the present invention allow for greatly reducing the amount of antifolate compound that is administered to a subject while actually increasing the amount of the compound that is available for therapeutic action.
# [7] = Comparative dissolution in 0.1N hydrochloric acid, USP dissolution apparatus with HPLC (FIG. 2, FIG. 3); format: physicochemical
# Method: The percent dissolution for both compounds in 0.1N hydrochloric acid as a function of time was evaluated using a standard USP dissolution apparatus and high performance liquid chromatography (HPLC) test equipment. […] This is particularly relevant in the case of pharmaceutical compositions of the invention for oral delivery, wherein the composition will encounter an acidic environment, such as in the stomach. Greater solubility of the sodium salt compound indicates a greater amount of the active compound will be available for absorption.
# Such improved solubility is illustrated in FIG. 3, wherein the comparative dissolution of an antifolate compound is given as the percent dissolution as a function of time. The antifolate compound was tested in the diacid form (denoted as “CH-1504 free acid”), in the sodium salt form (denoted as “CH-1504 sodium salt”), and as the sodium salt form in a pharmaceutical composition according to the invention including […]® 44/14 (denoted as “CH-1504 formulation”). Dissolution was tested using 0.1N hydrochloric acid. […] The inventive formulation achieved 90% dissolution by 30 minutes and 100% dissolution by 45 minutes. After 90 minutes, the salt alone and the diacid alone achieved only about 75% dissolution and about 50% dissolution, respectively.
structure (smiles),measurement,setting,value
"C=C(C[C@H](NC(=O)c1ccc(CCc2ccc3nc(N)nc(N)c3c2)cc1)C(=O)O)C(=O)O [L-CH-1504, (S)-2-{4-[2-(2,4-diamino-quinazolin-6-yl)-ethyl]-benzoylamino}-4-methylene-pentanedioic acid]",IC50,[1],1.1 µM
same,Plasma conc. of D-CH-1504,[2]; 1 h after 10 mg/kg oral,BLQ (Below limit of quantification (<0.500 ng/mL))
same,Plasma conc. of L-CH-1504,[2]; 1 h after 10 mg/kg oral,139 ng/mL and 118 ng/mL
same,Plasma conc. of D-CH-1504,[2]; 3 h after 10 mg/kg oral,BLQ (Below limit of quantification (<0.500 ng/mL))
same,Plasma conc. of L-CH-1504,[2]; 3 h after 10 mg/kg oral,36.8 ng/mL and 59.7 ng/mL
same,Plasma conc. of D-CH-1504,[2]; 6 h after 10 mg/kg oral,BLQ (Below limit of quantification (<0.500 ng/mL))
same,Plasma conc. of L-CH-1504,[2]; 6 h after 10 mg/kg oral,22.2 ng/mL and 21.7 ng/mL
same,concentration at 1 h,"[2]; female, Lewis, rat, plasma, oral, 10 mg/kg, 1 h after 10 mg/kg oral, read-out: Plasma conc. of L-CH-1504",144 ng/mL
same,concentration at 3 h,"[2]; female, Lewis, rat, plasma, oral, 10 mg/kg, 3 h after 10 mg/kg oral, read-out: Plasma conc. of L-CH-1504",61.9 ng/mL
same,concentration at 6 h,"[2]; female, Lewis, rat, plasma, oral, 10 mg/kg, 6 h after 10 mg/kg oral, read-out: Plasma conc. of L-CH-1504",22.7 ng/mL
Cc1ccc(S(=O)(=O)O)cc1.Cn1cc(-c2ccc3nnc(C(F)(F)c4ccc5ncccc5c4)n3n2)cn1 [tosylate salt],hygroscopicity study outcome,[3],Tacky or gummy solids or solids not exhibiting birefringence and extinction
C=C(C[C@@H](NC(=O)c1ccc(CCc2ccc3nc(N)nc(N)c3c2)cc1)C(=O)O)C(=O)O [D-CH-1504],IC50,[1],7.6 µM
same,Plasma conc. of D-CH-1504,[2]; 1 h after 10 mg/kg oral,31.5 ng/mL and 20.5 ng/mL and 11.0 ng/mL
same,Plasma conc. of L-CH-1504,[2]; 1 h after 10 mg/kg oral,0.895 ng/mL and BLQ (Below limit of quantification (<0.500 ng/mL)) (2×)
same,Plasma conc. of D-CH-1504,[2]; 3 h after 10 mg/kg oral,14.3 ng/mL and 9.44 ng/mL and 8.93 ng/mL
same,Plasma conc. of L-CH-1504,[2]; 3 h after 10 mg/kg oral,BLQ (Below limit of quantification (<0.500 ng/mL))
same,Plasma conc. of D-CH-1504,[2]; 6 h after 10 mg/kg oral,8.34 ng/mL and 13.6 ng/mL and 8.01 ng/mL
same,Plasma conc. of L-CH-1504,[2]; 6 h after 10 mg/kg oral,BLQ (Below limit of quantification (<0.500 ng/mL))
same,EC50,CCRF-CEM cells,0.029 µM
"Nc1nc(N)c2nc(CNc3ccc(C(=O)N[C@@H](CCC(=O)O)C(=O)O)cc3)cnc2n1 [Aminopterin, reference compound]",IC50,[1],1.5 µM
"C=C(CC(NC(=O)c1ccc(CCc2ccc3nc(N)nc(N)c3c2)cc1)C(=O)O)C(=O)O (racemic) [CH-1504, 2-{4-[2-(2,4-diamino-quinazolin-6-yl)-ethyl]-benzoylamino}-4-methylene-pentanedioic acid]",IC50,[1],1.7 µM
same,solubility (in words),[4],poor solubility
same,percent dissolution,[5],about 45%
same,AUC(0-inf),[6]; 1 mg,1.52 ng·h/mL
same,AUC(0-t),[6]; 1 mg,1.25 ng·h/mL
same,Cmax,[6]; 1 mg,0.69 ng/mL
same,Tmax,[6]; 1 mg,2.26 h
same,half-life,[6]; 1 mg,0.99 h
same,AUC(0-inf),[6]; 5 mg,9.58 ng·h/mL
same,AUC(0-t),[6]; 5 mg,8.92 ng·h/mL
same,Cmax,[6]; 5 mg,2.65 ng/mL
same,Tmax,[6]; 5 mg,1.26 h
same,half-life,[6]; 5 mg,3.21 h
same,AUC(0-inf),[6]; 7.5 mg,7.47 ng·h/mL
same,AUC(0-t),[6]; 7.5 mg,6.63 ng·h/mL
same,Cmax,[6]; 7.5 mg,2.05 ng/mL
same,Tmax,[6]; 7.5 mg,1.5 h
same,half-life,[6]; 7.5 mg,2.71 h
same,AUC(0-inf),[6]; 10 mg,26 ng·h/mL
same,AUC(0-t),[6]; 10 mg,25.2 ng·h/mL
same,Cmax,[6]; 10 mg,6 ng/mL
same,Tmax,[6]; 10 mg,2.01 h
same,half-life,[6]; 10 mg,3.13 h
same,AUC(0-inf),[6]; 15 mg,25.9 ng·h/mL
same,AUC(0-t),[6]; 15 mg,25 ng·h/mL
same,Cmax,[6]; 15 mg,6.57 ng/mL
same,Tmax,[6]; 15 mg,2.25 h
same,half-life,[6]; 15 mg,3.2 h
same,AUC(0-inf),[6]; 20 mg,35.6 ng·h/mL
same,AUC(0-t),[6]; 20 mg,34.6 ng·h/mL
same,Cmax,[6]; 20 mg,7.83 ng/mL
same,Tmax,[6]; 20 mg,2.25 h
same,half-life,[6]; 20 mg,3.91 h
same,percent dissolution,"[7]; FIG. 2, 45 minutes",45%
same,percent dissolution,"[7]; FIG. 3, 15 minutes",approximately 35%
same,percent dissolution,"[7]; FIG. 3, 90 minutes",about 50%

# From US20090253720A1, “ANTIFOLATE COMPOSITIONS” (Chelsea Therapeutics, Inc., priority 2008, published 2009)
